“And” between values parts separate entries of the source, which are not always exact repeats. Equal values may be shown once. Read-outs that look alike come from different tables or passages of the source.
How the values were obtained:
[1] = test system: intracellular S. flexneri SF_nanoluc in Caco-2 cells on Cytodex 3 beads; assay: microbe, parasite or virus in culture
Protocol: S. flexneri SF_nanoluc was grown overnight on a 50mgL^-1 kanamycin LB plate at 37 °C. Bacteria were scraped from the plate surface and sub-cultured in warm supplemented EMEM medium for 2 h (at 37 °C and 200 rpm) and diluted to get OD around 0.3 at 625 nm. Induction was performed in 500 ml or 1000 ml siliconized spinner flasks under closed culture conditions. 200 mg autoclaved Cytodex 3 beads (GE Healthcare), rehydrated with cation-free PBS (Sigma), were washed with supplemented EMEM medium and inoculated with 1.7 million Caco-2 cells/ml in half of the desired culture volume of the medium. The spinner vessel was kept static for 4 h in a humidified atmosphere of 5% CO2 at 37 °C, allowing Caco-2 cells to bind to beads. The remaining medium was added into the vessel and stirred at 32.5 rpm. The medium was changed every 72 h, and the induction was used on day 17 to ensure Caco-2 cells were fully differentiated.
Cell concentration induction was measured by NucleoCounter® NC-100™ (ChemoMetec Version 2.4). Cellular invasion was initiated by adding the bacterial stock into cell induction with optimal MOI, and the vessel was stationary for an hour before stirring at 22.5 rpm for 5 h in a humid atmosphere of 5% CO2 at 37 °C. After incubation, culture media was discarded by centrifugation; and a gentamicin protection assay was performed, in which cell beads were washed twice with a warm medium and EMEM containing gentamicin (100ug ml^-1) was added to the chamber of the system. The cell culture was incubated for 1 h with stirring and then washed three times with a warm medium before 25 μl of the invasive mixture was dispensed into each well. Plates were incubated for two days in a humid atmosphere of 5% CO2 at 37 °C before proceeding to develop the luminescent signal by adding 10 μl mixture of nanoluciferase substrate (Nano-Glo® Luciferase Assay System, N1130, Promega) into each well. After standing at room temperature for 30 min, luminescent signals were quantified by the Envision Reader (PerkinElmer) in focus luminescent mode. For the bacterial tracking, we used the green fluorescent protein in S. flexneri ATCC 12022GFP to monitor the invasion.
The HTS assay was performed in 384-well black clear-bottom plates (Greiner). Screening compounds were prepared with an appropriate DMSO concentration (0.5% in cell-based assay). Every assay plate contained 16 wells of DMSO as negative controls and 16 wells of moxifloxacin at a final concentration of 20 μM as positive controls. These controls were used to monitor assay quality through determination of Z’ factor as well as normalizing the data on a per-plate basis.
To assess the quality of the dose-response assay, 11 commercially available antimicrobials were used to evaluate the reliability of the HTS assay. The percentage of coefficient of variation (CV%) was calculated by accessing the IC50 (μM) deviation of selected positive controls. Intra-assay reproducibility was determined by comparing the IC50 that were generated in the same run of the two replicates. Inter-assay reproducibility was assessed by comparing the IC50 generated by two replicates of each day over two days. Intra-assay %CV should be <10%, while inter-assay %CV should be <15%. To validate the HTS assay configuration, a set of 10 thousand compounds was assayed in 384-well plates at a final concentration of 10 μM. Assay were run in duplicate and confirmed if needed, a validation data was assessed to analyse the pros and cons of the whole procedure.
Following screening, all non-novel structures were removed, and the remaining compounds were subjected to a dose response (DR) assay, which was set as 3-fold serial dilution started at 100uM each compound.
The raw data of the plate reader was imported and analysed in ActivityBase and Spotfire version 10.3.1.18 (TIBCO).

CAD solubility = format: physicochemical; conditions: Table 1
HepG2 cells = assay: In vitro cytotoxicity on HepG2 cells; format: cell-based; conditions: for IC50: Homo sapiens
From the text: Upon chemical review, the 15 hit compounds were reorganized based on structure similarity into 13 clusters. Two chemicals were considered as a series, and the remaining 11 clusters were singletons (Fig. 3). […] Four of the 15 structures carried an NO2 moiety, including two hits of Series 1, one hit of Series 2, and Singleton 7. Although the antibacterial activity of nitro-containing molecules is known to be broad, nitro groups have been extensively associated with mutagenicity and genotoxicity.

[2] = Experimental Chromlog / ChromLogD pH7.4 and PFI; format: physicochemical; conditions: for Chromlog pH7.4 (Expt): pH7.4, experimental
[3] = test system: intracellular S. flexneri in Caco-2 cell monolayers; assay: Monolayer (plate-based) Caco-2 intracellular Shigella assay; format: cell-based, Shigella flexneri
From the text: The IC50 comparison between plate-based (monolayers) and bead-based assay was applied for control (Moxifloxacin) to validate and compare between two methods. The average IC50s from monolayer assays were lower than bead-based assays, but there was no significant difference (p value > 0.05, using Mann-Whitney test) between two methods (Supplementary Table 6).

[4] = Shigella flexneri, Caco-2, read-out: IC50 T1, 1st Batch, replicate T1
[5] = Shigella flexneri, Caco-2, read-out: IC50 T2, 1st Batch, replicate T2
[6] = Shigella flexneri, Caco-2, read-out: IC50 T3, 2nd Batch, replicate T3
[7] = Shigella flexneri, Caco-2, read-out: IC50 T4, 2nd Batch, replicate T4
[8] = HepG2, Supplementary table 8, read-out: HepG2 pIC50 (converted)
[9] = HepG2, read-out: HepG2 pIC50, Table 1 (converted)
[10] = Shigella flexneri, Caco-2, read-out: Caco2 IC50 (μM), Table 1, 3-D Caco-2 beads, intracellular S. flexneri
[11] = Shigella flexneri, Caco-2, read-out: Caco2 pIC50, Table 1 (converted), 3-D Caco-2 beads, intracellular S. flexneri
[12] = HepG2, Table 1, read-out: HepG2 pIC50 (converted)

Row | Compound | IC50 [1, 4] [µM] | IC50 [1, 5] [µM] | IC50 [1, 6] [µM] | IC50 [1, 7] [µM] | CAD sol (CAD solubility) [µg/mL] | Selectivity (log) Caco pIC50 vs Cytotox ([1]; Caco-2) [log] | Selectivity (log) Caco pIC50 vs cytox ([1]; Caco-2) [log] | IC50 [1, 10] [µM] | IC50 [1, 11] [µM] | Chromlog pH7.4 (Expt) [2] | other results
1 | COc1ccc(-c2ccn(CC[C@](C)(C(=O)NO)S(C)(=O)=O)c(=O)c2)c(F)c1 [PF5081090, reference compound] | – | – | – | – | – | – | – | – | – | – | IC50 ([1]; read-out: IC50 T1, 1st Batch, replicate T1): 0.0957 µM; IC50 ([1]; read-out: IC50 T2, 1st Batch, replicate T2): 0.0919 µM; IC50 ([1]; read-out: IC50 T3, 2nd Batch, replicate T3): 0.0937 µM; IC50 ([1]; read-out: IC50 T4, 2nd Batch, replicate T4): 0.0938 µM
2 | CC[C@H]1OC(=O)[C@H](C)[C@@H](O[C@H]2C[C@@](C)(OC)[C@@H](O)[C@H](C)O2)[C@H](C)[C@@H](O[C@@H]2O[C@H](C)C[C@H](N(C)C)[C@H]2O)[C@](C)(O)C[C@@H](C)CN(C)[C@H](C)[C@@H](O)[C@]1(C)O [Azithromycin, reference compound] | 0.569 | 0.51 | 0.624 | 0.624 | – | – | – | – | – | – | –
3 | COc1ccc2c(CC(=O)NC(c3ccc(Cl)cc3)C3CC3)coc2c1 (stereo not drawn) [Compound 13] | – | – | – | – | 53 | > 0.61 | >0.61 | 24.6 | 24.5 | 6.43 | IC50 (HepG2 cells; [8]): > 100 µM; IC50 (HepG2 cells; [9]): > 1 µM
4 | CC(=O)c1cccc(NC(=O)Nc2ccc(S(=O)(=O)Nc3cc(C)on3)cc2)c1 [Compound 15] | – | – | – | – | >149 | > 0.76 | >0.61 | 17.4 | 17.4 | 2.04 | IC50 (HepG2 cells; [8]): > 100 µM; IC50 (HepG2 cells; [9]): > 0.01 µM
5 | CN(C)[C@@H]1C(O)=C(C(N)=O)C(=O)[C@@]2(O)C(O)=C3C(=O)c4c(O)cccc4[C@@](C)(O)[C@H]3C[C@@H]12 [Tetracycline, reference compound] | 1.61 | 1.56 | 1.19 | 1.18 | – | – | – | – | – | – | –
6 | N#Cc1cnn2c1[nH]c(=O)c1sc(-c3ccccc3)cc12 [Compound 9] | – | – | – | – | 17 | 0.58 | 0.58 | 19.9 | 20 | 2.5 | IC50 (HepG2 cells; [12]): 75.9 µM; IC50 ([1]; Shigella flexneri, Caco-2, read-out: Caco2 pIC50, printed in Fig. 3 (converted)): 2 µM
7 | COc1c(N2C[C@@H]3CCCN[C@@H]3C2)c(F)cc2c(=O)c(C(=O)O)cn(C3CC3)c12 [Moxifloxacin, reference compound] | 0.0252 | 0.0221 | 0.0235 | 0.0235 | – | – | – | – | – | – | IC50 ([3]; Shigella flexneri, Caco-2, Average of three, read-out: IC50 (µM) Monolayers, Average): 0.0232 µM; IC50 ([3]; Shigella flexneri, Caco-2, single runs, read-out: IC50 (µM) Monolayers): 0.0236 µM; IC50 ([3]; single runs, read-out: IC50 (µM) Monolayers): 0.0234 µM and 0.0228 µM; IC50 ([1]; Shigella flexneri, Caco-2, read-out: IC50 (µM) Beads, Average, Average of three, Supplementary table 6): 0.0305 µM; IC50 ([1]; Shigella flexneri, Caco-2, read-out: IC50 (µM) Beads, single runs, Supplementary table 6): 0.0361 µM; IC50 ([1]; read-out: IC50 (µM) Beads, single runs, Supplementary table 6): 0.0327 µM and 0.0226 µM
8 | COc1ccc(C2Nc3nc4ccccc4n3C(C)=C2C(=O)Nc2ccccc2)cc1 (stereo not drawn) [Compound 8] | – | – | – | – | 10 | 0.38 | 0.38 | 22.9 | 22.9 | 4.77 | HepG2 cytotoxicity (in words) (HepG2 cells): exhibit HepG2 cytotoxicity; IC50 (HepG2 cells; [12]): 55 µM
9 | C[C@@H](O)[C@H]1C(=O)N2C(C(=O)O)=C([C@H]3CCCO3)S[C@H]12 [Faropenem, reference compound] | 1.3 | 1.23 | 1.43 | 1.44 | – | – | – | – | – | – | –
10 | CCn1c(-c2nonc2N)nc2c(-c3cccc(Cl)c3)ncc(C(O)c3ccn(C)n3)c21 (stereo not drawn) [Compound 7] | – | – | – | – | 10 | > 1.49 | >1.49 | 3.24 | 3.24 | 4.75 | IC50 (HepG2 cells; [12]): > 100 µM
11 | NC(=O)c1ccccc1Oc1ccc(Cl)cc1[N+](=O)[O-] [Compound 11] | – | – | – | – | – | 0.61 | – | – | – | – | HepG2 cytotoxicity (in words) (HepG2 cells): exhibit HepG2 cytotoxicity; IC50 (HepG2 cells; [8]): 23.4 µM; IC50 ([1]; Shigella flexneri, Caco-2, read-out: Caco2 pIC50, Supplementary table 8 (converted)): 5.75 µM
12 | C[C@@H](O)[C@H]1C(=O)N2C(C(=O)O)=C(S[C@@H]3CN[C@H](C(=O)N(C)C)C3)[C@H](C)[C@H]12 [Meropenem, reference compound] | 0.349 | 0.365 | 0.404 | 0.399 | – | – | – | – | – | – | –
13 | CN1C(=O)[C@H](NC(=O)NCc2ccccc2)N=C(c2ccccc2)c2ccccc21 [Compound 5] | – | – | – | – | – | – | – | 19.1 | 19.1 | – | IC50 (HepG2 cells; [12]): > 100 µM; Selectivity (log) Caco pIC50 vs Cytotox ([1]; Supplementary table 8, vs HepG2): > 0.72 log; Selectivity (log) Caco pIC50 vs cytox ([1]; Table 1, Caco2 pIC50 vs HepG2 pIC50): >0.72 log
14 | CC(=O)c1csc(-c2csc(C)n2)n1 [Compound 10] | – | – | – | – | – | 1.07 | 1.07 | 8.51 | 8.51 | – | IC50 (HepG2 cells; [9]): > 100 µM
15 | CNC(C)C1CCC(N)C(OC2C(N)CC(N)C(OC3OCC(C)(O)C(NC)C3O)C2O)O1 (stereo not drawn) [Gentamicin, reference compound] | 1.52 | 1.27 | 1.17 | 1.24 | – | – | – | – | – | – | –
16 | Cc1nn(-c2ccccc2)c(C)c1NC(=O)CN1C(=O)NC(C)(c2ccco2)C1=O (stereo not drawn) [Compound 14] | – | – | – | – | >106 | > 0.61 | >0.61 | 24.6 | 24.5 | 2.93 | IC50 (HepG2 cells; [8]): > 100 µM; IC50 (HepG2 cells; [9]): > 0.1 µM
17 | CC(C)c1noc2ncc(C(=O)c3ccccc3O)cc12 [Compound 12] | – | – | – | – | 44 | 1.80 | 1.80 | 1.59 | 1.58 | 6.05 | IC50 (HepG2 cells; [8]): > 100 µM; IC50 (HepG2 cells; [9]): > 10 µM; PFI (Expt) ([2]; experimental): 9.05
18 | CO/N=C(\C(=O)N[C@@H]1C(=O)N2C(C(=O)O)=C(CSc3nc(=O)c(=O)[nH]n3C)CS[C@H]12)c1csc(N)n1 [Ceftriaxone, reference compound] | 0.0151 | 0.0151 | 0.0196 | 0.0196 | – | – | – | – | – | – | –
